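All cell lines were grown in 96-well plates and treated with compound for 48 hours. At the GI50, growth is halved.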 Active and inactive are the calls of the source. No stated cut-off is given here; in the data, active = GI50 up to about 1.1 µM and inactive = higher.
What was measured:
Assay in all cases: inhibition of tumour cell growth, NCI panel, 48 h
MCF7 = test system: MCF7
SK-MEL-28 = test system: SK-MEL-28
Hs-578T = test system: Hs-578T
NCI-H460 = test system: NCI-H460
A498 = test system: A498
TK-10 = test system: TK-10
DU-145 = test system: DU-145
LOX IMVI = test system: LOX IMVI
SF-295 = test system: SF-295
HOP-62 = test system: HOP-62
786-0 = test system: 786-0
MOLT-4 = test system: MOLT-4
COLO 205 = test system: COLO 205
PC-3 = test system: PC-3
HCT-15 = test system: HCT-15
M14 = test system: M14
HL-60 = test system: HL-60
SK-MEL-2 = test system: SK-MEL-2
NCI-H226 = test system: NCI-H226
HCT-116 = test system: HCT-116

Compound	GI50 (MCF7)	GI50 (SK-MEL-28)	GI50 (Hs-578T)	GI50 (NCI-H460)	GI50 (A498)	GI50 (TK-10)	GI50 (DU-145)	GI50 (LOX IMVI)	GI50 (SF-295)	GI50 (HOP-62)	GI50 (786-0)	GI50 (MOLT-4)	GI50 (COLO 205)	GI50 (PC-3)	GI50 (HCT-15) [µM]	GI50 (M14)	GI50 (HL-60)	GI50 (SK-MEL-2)	GI50 (NCI-H226)	GI50 (HCT-116)
CC(C)[C@]12O[C@H]1[C@@H]1O[C@@]13[C@@]1(C)CCC4=C(COC4=O)[C@@H]1C[C@@H]1O[C@@]13C2=O [TRIPTONIDE]	< 0.01 µM (active)	0.0126 µM (active)	< 0.0158 µM (active)	< 0.01 µM (active)	0.0178 µM (active)	0.0261 µM (active)	0.0235 µM (active)	< 0.01 µM (active)	0.0771 µM (active)	< 0.01 µM (active)	0.0248 µM (active)	< 0.01 µM (active)	< 0.0113 µM (active)	0.0227 µM (active)	0.0251	0.0173 µM (active)	< 0.01 µM (active)	0.0119 µM (active)	< 0.0193 µM (active)	< 0.01 µM (active)
Cc1ccnc2nc(-c3cccc4ccccc34)cc(O)c12	0.0304 µM (active)	0.00395 µM (active)	0.0141 µM (active)	0.0121 µM (active)	0.00167 µM (active)	0.454 µM (active)	0.035 µM (active)	0.00713 µM (active)	0.0132 µM (active)	0.537 µM (active)	0.011 µM (active)	0.00989 µM (active)	0.0177 µM (active)	0.0113 µM (active)	0.00434	0.00938 µM (active)	0.000487 µM (active)	0.000458 µM (active)	0.0336 µM (active)	0.00542 µM (active)
CCOC(=O)C(C)(C)Oc1ccc(Cl)cc1 [CLOFIBRATE]	325 µM (inactive)	489 µM (inactive)	208 µM (inactive)	632 µM (inactive)	297 µM (inactive)	> 1000 µM (inactive)	935 µM (inactive)	156 µM (inactive)	319 µM (inactive)	> 1000 µM (inactive)	462 µM (inactive)	161 µM (inactive)	202 µM (inactive)	359 µM (inactive)	435	> 1000 µM (inactive)	> 1000 µM (inactive)	173 µM (inactive)	188 µM (inactive)	214 µM (inactive)
COC1/C=C\C=C(/C)C(=O)NC2=CC(=O)C(O)=C(CC(C)CC(OC)C(O)C(C)/C=C(\C)C1OC(N)=O)C2=O (stereo not given)	0.0826 µM (active)	0.316 µM (active)	3.13 µM (inactive)	1.5 µM (inactive)	38.5 µM (inactive)	0.438 µM (active)	0.115 µM (active)	0.406 µM (active)	4.99 µM (inactive)	13.7 µM (inactive)	10.1 µM (inactive)	0.0959 µM (active)	0.0422 µM (active)	0.253 µM (active)	2.26	0.56 µM (active)	0.169 µM (active)	0.893 µM (active)	> 100 µM (inactive)	0.267 µM (active)
CC1=C/C(=N\N(C)C)C(C(O)(C(F)(F)F)C(F)(F)F)C(C)(C)C1 (stereo not given)	> 100 µM (inactive)	> 100 µM (inactive)	72.4 µM (inactive)	> 100 µM (inactive)	> 100 µM (inactive)	> 100 µM (inactive)	> 100 µM (inactive)	> 100 µM (inactive)	> 100 µM (inactive)	> 100 µM (inactive)	> 100 µM (inactive)	97.1 µM (inactive)	> 100 µM (inactive)	73.6 µM (inactive)	> 100	> 100 µM (inactive)	> 100 µM (inactive)	> 100 µM (inactive)	> 100 µM (inactive)	> 100 µM (inactive)
COc1ccc(N/N=C2\C3=C(CCC(C)(C)O3)C(=O)c3ccccc32)cc1	12.4 µM (inactive)	22.2 µM (inactive)	19.1 µM (inactive)	14.2 µM (inactive)	15 µM (inactive)	20.5 µM (inactive)	25.2 µM (inactive)	16.2 µM (inactive)	14.8 µM (inactive)	20.9 µM (inactive)	18.3 µM (inactive)	18.1 µM (inactive)	22.9 µM (inactive)	21.9 µM (inactive)	13.7	20.7 µM (inactive)	15.3 µM (inactive)	21.8 µM (inactive)	52.6 µM (inactive)	14.1 µM (inactive)
